Laboratory results: patent publication US20140213446A1, “HERBICIDAL COMPOSITIONS AND METHODS USING COMBINATIONS OF 4-AMINO-3-CHLORO-6-(4-CHLORO-2-FLUORO-3-METHOXYPHENYL)PYRIDINE-2-CARBOXYLIC ACID OR A DERIVATIVE THEREOF AND AN ARYLOXYPHENOXY PROPIONATE ACCASE INHIBITOR HERBICIDE” (DOW AGROSCIENCES LLC, priority 2013, published 2014)

How the values were obtained:
Experiment in all cases: Postemergence foliar-applied herbicidal mixtures, weeds common to row crops
Type in all cases: in vivo
[1] = test system: AVEFA Avena fatua L. (wild oat)
From the text: (§1) Evaluation of Postemergence Foliar-Applied Herbicidal Mixtures for Control of Weeds Common to Row Crops such as Corn and Soybeans. Seeds or nutlets of the desired test plant species were planted in a soil matrix prepared by mixing a loam or sandy loam soil (e.g., 28.6 percent silt, 18.8 percent clay, and 52.6 percent sand, with a pH of about 5.8 and an organic matter content of about 1.8 percent) and calcareous grit in an 80 to 20 ratio. The soil matrix was contained in plastic pots with a surface area of 84.6 cm^2 and a volume of 560 cubic centimeters (cm^3). When required to ensure good germination and healthy plants, a fungicide treatment and/or other chemical or physical treatment was applied. The plants were grown for 7-31 d in a greenhouse with an approximate 15 h photoperiod which was maintained at about 23-29° C. during the day and 22-28° C. during the night. Nutrients (Peters Excel® 15-5-15 5-Ca 2-Mg) and water were added on a regular basis and supplemental lighting was provided with overhead metal halide 1000-Watt lamps as necessary. The plants were employed for testing when they reached the first, second, or third true leaf stage.
(§2) Treatment requirements were calculated based upon the rates being tested, the concentration of active ingredient or acid equivalent in the formulation, and a 12 mL application volume at a rate of 187 L/ha.
(§3) Treatments consisted of the potassium (K^+) salt of 4-amino-3-chloro-6-(4-chloro-2-fluoro-3-methoxyphenyl)-pyridine-2-carboxylic acid (Cmpd 4) formulated as a soluble liquid (SL), the propargyl ester of 4-amino-3-chloro-6-(4-chloro-2-fluoro-3-methoxyphenyl)-pyridine-2-carboxylic acid (Cmpd 2) as technical grade material, or the benzyl ester of 4-amino-3-chloro-6-(4-chloro-2-fluoro-3-methoxyphenyl)-pyridine-2-carboxylic acid (Cmpd 3) as technical grade material and quizalofop-p-ethyl (Assure® II) alone and in combination. Forms of compound of formula (I) and quizalofop-P-ethyl were applied on an acid equivalent basis.
(§4) For treatments comprised of formulated compounds, measured amounts of compounds were placed individually in 25 mL glass vials and diluted in a volume of 1.5% (v/v) Agri-Dex® crop oil concentrated to obtain 6× stock solutions. […] Application solutions were prepared by adding an appropriate amount of each stock solution (typically 2 mL) and diluted to the appropriate final concentrations with the addition of an appropriate amount of an aqueous mixture of 1.5% (v/v) crop oil concentrate and water so that the final spray solutions contained 1.25+/−0.05% (v/v) crop oil concentrate.
(§5) For treatments comprised of formulated and technical compounds, weighed amounts of the technical materials were placed individually in 25 mL glass vials and dissolved in a volume of 97:3 v/v acetone/DMSO to obtain 6× stock solutions, and measured amounts of the formulated compounds were placed individually in 25 mL glass vials and diluted in a volume of 1.5% (v/v) crop oil concentrate or water to obtain 6× stock solutions. […] Application solutions were prepared by adding an appropriate amount of each stock solution (e.g., 2 mL) and diluted to the appropriate final concentrations with the addition of an appropriate amount of an aqueous mixture of 1.5% (v/v) crop oil concentrate and water so that the final spray solutions contained 1.25% (v/v) crop oil concentrate. When required, additional water and/or 97:3 v/v acetone/DMSO can be added to individual application solutions so that the final acetone and DMSO concentrations of the application solutions being compared are 16.2% and 0.5%, respectively.
(§6) All stock solutions and applications solutions were visually inspected for compound compatibility prior to application. Compound requirements are based upon a 12 mL application volume at a rate of 187 liters per hectare (L/ha). […]

[2] = test system: DIGSA Digitaria sanguinalis (L.) Scop. (large crabgrass); conditions: Quizalofop-P-ethyl 3.56 g ae/ha
From the text: as §1, §2, §3, §4, §5, §6

[3] = test system: LOLMU Lolium multiflorum Lam. (Italian ryegrass); conditions: Quizalofop-P-ethyl 3.56 g ae/ha
From the text: as §1, §2, §3, §4, §5, §6

[4] = test system: OEOBI Oenothera biennis (evening primrose)
From the text: as §1, §2, §3, §4, §5, §6

[5] = test system: SORHA Sorghum halepense (L.) Pers. (Johnsongrass); conditions: Quizalofop-P-ethyl 7.125 g ae/ha
From the text: as §1, §2, §3, §4, §5, §6

[6] = Quizalofop-P-ethyl 7.125 g ae/ha
[7] = Quizalofop-P-ethyl 14.25 g ae/ha

CCOC(=O)[C@@H](C)Oc1ccc(Oc2cnc3cc(Cl)ccc3n2)cc1 [Quizalofop-P-ethyl, quizalofop-P-ethyl]
Percent (%) injury rated visually 14 DAA Obs ([1]; Quizalofop-P-ethyl 3.56 g ae/ha): 15%
Percent (%) injury rated visually 14 DAA Obs [1, 6]: 15%
Percent (%) injury rated visually 14 DAA Obs [1, 7]: 40%
Percent (%) injury rated visually 14 DAA Obs [2]: 20%
Percent (%) injury rated visually 14 DAA Obs [3]: 0%
Percent (%) injury rated visually 14 DAA Obs [4, 6]: 0%
Percent (%) injury rated visually 14 DAA Obs [4, 7]: 0%
Percent (%) injury rated visually 14 DAA Obs ([4]; Quizalofop-P-ethyl 28.5 g ae/ha): 0%
Percent (%) injury rated visually 14 DAA Obs [5]: 50%
